Laboratory results: PMC4227753, “Mycobacterium smegmatis DinB2 misincorporates deoxyribonucleotides and ribonucleotides during templated synthesis and lesion bypass” (Nucleic Acids Research, 2014)

Molecular target: T1, DinB2 (Mycolicibacterium smegmatis, UniProt A0QR77)
T1 construct: gene dinB
Experiment: single-turnover primer extension, kobs vs [NTP], one-site fit
Assay type: biochemical
Details: 5 mM MgCl2, 10 mM Tris-HCl pH 7.5, 37 C, 1 uM DinB2, 50 nM 13-mer/18-mer primer-template

T1 sequence (A0QR77 entry or part of it): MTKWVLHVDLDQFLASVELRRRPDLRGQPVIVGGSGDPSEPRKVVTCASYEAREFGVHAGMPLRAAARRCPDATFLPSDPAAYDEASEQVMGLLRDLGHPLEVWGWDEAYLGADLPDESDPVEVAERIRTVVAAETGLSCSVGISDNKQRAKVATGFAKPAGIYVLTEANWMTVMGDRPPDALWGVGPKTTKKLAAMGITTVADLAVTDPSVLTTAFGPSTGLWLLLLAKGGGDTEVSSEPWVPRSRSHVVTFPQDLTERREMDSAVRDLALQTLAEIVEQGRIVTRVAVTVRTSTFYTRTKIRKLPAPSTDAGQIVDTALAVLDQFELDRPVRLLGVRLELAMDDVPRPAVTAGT

Question: How did the Kd (mispair: opposite template dT (oligo-dT5 tail)) turn out when `Nc1nc2c(ncn2[C@@H]2O[C@H](COP(=O)(O)OP(=O)(O)OP(=O)(O)O)[C@@H](O)[C@H]2O)c(=O)[nH]1` [GTP] was run?
Answer: 386 µM

Question: Which Kd (mispair: opposite template dC (oligo-dC5 tail)) does the source give for `O=c1ccn([C@@H]2O[C@H](COP(=O)(O)OP(=O)(O)OP(=O)(O)O)[C@@H](O)[C@H]2O)c(=O)[nH]1` [UTP] here?
Answer: 412 µM
